Among the data in publication PMC4717260, “2-(2,4-Dioxy-1,2,3,4-Tetrahydropyrimidin-1-yl)-N-(4-Phenoxyphenyl)-Acetamides as a Novel Class of Cytomegalovirus Replication Inhibitors” (Acta Naturae, 2015) are melting point and EC50 values, retold here.

Data set [1] has as its target thymidine kinase deficient VZV mutant strain (07-1). Kind of data set: Anti-VZV activity (thymidine kinase deficient mutant strain 07-1). It counts as cell-based, varicella zoster virus.
Data set [2] relates to CMV (AD-169 and Davis strains). Kind of data set: Anti-CMV activity in HEL cell culture. The conditions noted are these: read-out: EC50, inhibition of CMV replication. Type of data set: cell-based, human cytomegalovirus.
The next data set relates to VZV (Oka strain). Kind of data set: microbe, parasite or virus in culture. It counts as cell-based, varicella zoster virus. The conditions noted are these: read-out: EC50, VZV replication (Oka strain).

SMILES strings stand for the structures. Where two headings read alike, the source gives them in different places.

Molecule `C#CCn1ccc(=O)n(CC(=O)Nc2ccc(Oc3ccccc3)cc2)c1=O` yielded a melting point of 226 to 228 °C. Still for that read-out and setting: the same measure for `Cc1ccc(Cn2ccc(=O)n(CC(=O)Nc3ccc(Oc4ccccc4)cc3)c2=O)cc1`: 193 to 194 °C. The same measure, in the same setting: the same measure for `O=C(Cn1c(=O)ccn(CC=Cc2ccccc2)c1=O)Nc1ccc(Oc2ccccc2)cc1`: 184 to 185 °C; for `O=C(Cn1c(=O)ccn(CCOc2ccccc2)c1=O)Nc1ccc(Oc2ccccc2)cc1`: 154 to 155 °C. Consider `O=C(Cn1c(=O)ccn(Cc2ccccc2)c1=O)Nc1ccc(Oc2ccccc2)cc1` [Compound 4, 2-(3-Benzyl-2,6-dioxo-3,6-dihydropyrimidin-1(2H)-yl)-N-(4-phenoxyphenyl)acetamides], for which the EC50 in data set [1] (strain 07-1, resistant to acyclovir and brivudine, read-out: EC50, thymidine kinase deficient VZV mutant strain (07-1)) was 6.68 µM; in data set [2] (one range printed for both compounds and both strains), 3.06 to 8.9 µM; with VZV (Oka strain) (HEL cell culture, Oka strain), 8.18 µM. The molecule `Cc1cc(C)cc(Cn2ccc(=O)n(CC(=O)Nc3ccc(Oc4ccccc4)cc3)c2=O)c1` [Compound 6, 2-[3-(3,5-Dimethylbenzyl)-2,6-dioxo-3,6-dihydropyrimidin-1(2H)-yl]-N-(4-phenoxyphenyl)acetamide] came in with a melting point of 99 to 101 °C. Also, in data set [1] (Human alphaherpesvirus 3, read-out: EC50, thymidine kinase deficient VZV mutant strain (07-1)), the EC50 was 16.1 µM. Moreover, in data set [2] (Human betaherpesvirus 5, AD169, one range printed for both compounds and both strains), the EC50 fell in the range of 3.06 to 8.9 µM. Moreover, the EC50 in the data set with VZV (Oka strain) (Human alphaherpesvirus 3, HEL) came to 17 µM.

On to `O=c1[nH]c(=O)n([C@H]2C[C@H](O)[C@@H](CO)O2)cc1/C=C/Br` [brivudine, reference compound], for which the EC50 with VZV (Oka strain) (Human alphaherpesvirus 3, HEL) came to 0.026 µM.
